Test results reported in patent US7138361B2, “Herbicidal heterocycles” (E. I. du Pont de Nemours and Company, priority 2000, dated 2006).

What was measured:
Assay in all cases: Test D greenhouse paddy-water test in rice
Format in all cases: in vivo
Conditions in all cases: 500 g/ha alone, 21 days, 0-100 scale
Ammania auriculata (Aa) = system: Ammania auriculata (Aa)
From the text: (§1) Four plastic pots (ca. 16-cm diameter) per rate were partially filled with sterilized Tama silt loam soil comprised of a 35:50:15 ratio of sand, silt and clay and 2.6% organic matter. Separate plantings for each of the four pots were as follows. Seeds from the U.S. of Heteranthera limosa (Hl), Monochoria vaginalis (Mv), Ammania auriculata (Aa), and Sphenoclea zeylanica (Sz) were planted into one 16-cm pot for each rate. Seeds from the U.S. of Cyperus iria (Ci), Leptochloa fascicularis (Li), one stand of 9 or 10 direct-seeded rice seedlings (Oryza saliva cv. ‘Japonica—M202’; Oss), and one stand of 6 transplanted rice seedlings (Oryza sativa cv. ‘Japonica—M202’; Ost) were planted into one 16-cm pot for each rate. Seeds from the U.S. of Cyperus difformis (Cd), Alisma plantago-aquatica (Ap), and Scirpus mucronatus (Sm) were planted into one 16-cm pot for each rate. Seeds from the U.S. of Echinochloa crus-galli (Ecg), Echinochloa oryzicola (Eor), Echinochloa oryzoides (Eoz) and Echinochloa colonum (Ecc) were planted into one 16-cm pot for each rate. Plantings were sequential so that crop and weed species were at the 2.0 to 2.5-leaf stage at time of treatment.
(§2) Potted plants were grown in a greenhouse with day/night temperature settings of 29.5/26.7° C., and supplemental balanced lighting was provided to maintain a 16-hour photoperiod. Test pots were maintained in the greenhouse until test completion.
(§3) Chemical treatments consisting of Compound 1 of Index Table A (Cmpd 1), daimuron (Cmpd D), quinoclamine (Cmpd Q) and combinations thereof were formulated in acetone. At time of treatment, test pots were flooded to 3 cm above the soil surface, treated by application of test compounds directly to the paddy water, and then maintained at that water depth for the duration of the test. Effects of treatments on rice and weeds were visually evaluated by comparison to untreated controls after 21 days. Plant response ratings are reported on a 0 to 100 scale; where 0 is no effect and 100 is complete control. ND means no data.
(§4) Colby's equation was used to calculate the expected additive herbicidal effect of the mixtures of Compound 1 with daimuron (Cmpd D) and quinoclamine (Cmpd Q). Colby's equation (Colby, S. R “Calculating Synergistic and Antagonistic Responses of Herbicide Combinations,” Weeds, 15(1), pp 20–22 (1967)) calculates the expected additive effect of herbicidal mixtures, and for two active ingredients is of the form: Pa+b=Pa+Pb−(PaPb/100) wherein Pa+b is the percentage effect of the mixture expected from additive contribution of the individual components, • Pa is the observed percentage effect of the first active ingredient at the same use rate as in the mixture, and • Pb is the observed percentage effect of the second active ingredient at the same use rate as in the mixture.

[1] = system: Echinochloa crus-galli (Ecg)
From the text: as §1, §2, §3, §4

[2] = system: Alisma plantago-aquatica (Ap)
From the text: as §1, §2, §3, §4

[3] = system: Echinochloa oryzoides (Eoz)
From the text: as §1, §2, §3, §4

[4] = system: Echinochloa colonum (Ecc)
From the text: as §1, §2, §3, §4

Heteranthera limosa (Hl) = system: Heteranthera limosa (Hl)
From the text: as §1, §2, §3, §4

[5] = system: Monochoria vaginalis (Mv)
From the text: as §1, §2, §3, §4

[6] = system: Sphenoclea zeylanica (Sz)
From the text: as §1, §2, §3, §4

[7] = system: Leptochloa fascicularis (Li)
From the text: as §1, §2, §3, §4

[8] = system: transplanted rice seedlings (Oryza sativa cv. 'Japonica—M202'; Ost)
From the text: as §1, §2, §3, §4

[9] = system: Echinochloa oryzicola (Eor)
From the text: as §1, §2, §3, §4

Cyperus difformis (Cd) = system: Cyperus difformis (Cd)
From the text: as §1, §2, §3, §4

Cyperus iria (Ci) = system: Cyperus iria (Ci)
From the text: as §1, §2, §3, §4

[10] = system: direct-seeded rice seedlings (Oryza saliva cv. 'Japonica—M202'; Oss)
From the text: as §1, §2, §3, §4

Scirpus mucronatus (Sm) = system: Scirpus mucronatus (Sm)
From the text: as §1, §2, §3, §4

Cc1ccc(NC(=O)NC(C)(C)c2ccccc2)cc1 [daimuron, reference compound]
Obs. (observed effect) Aa (Ammania auriculata (Aa)): 0 | Obs. (observed effect) Ecg [1]: 0 | Obs. (observed effect) Ap [2]: 0 | Obs. (observed effect) Eoz [3]: 0 | Obs. (observed effect) Ecc [4]: 0 | Obs. (observed effect) Hl (Heteranthera limosa (Hl)): 30 | Obs. (observed effect) Mv [5]: 30 | Obs. (observed effect) Sz [6]: 20 | Obs. (observed effect) Lf [7]: 0 | Obs. (observed effect) Ost [8]: 0 | Obs. (observed effect) Eor [9]: 0 | Obs. (observed effect) Cd (Cyperus difformis (Cd)): 60 | Obs. (observed effect) Ci (Cyperus iria (Ci)): 0 | Obs. (observed effect) Oss [10]: 0

NC1=C(Cl)C(=O)c2ccccc2C1=O [quinoclamine, reference compound]
Obs. (observed effect) Aa (Ammania auriculata (Aa)): 0 | Obs. (observed effect) Ecg [1]: 0 | Obs. (observed effect) Ap [2]: 60 | Obs. (observed effect) Eoz [3]: 0 | Obs. (observed effect) Ecc [4]: 0 | Obs. (observed effect) Hl (Heteranthera limosa (Hl)): 0 | Obs. (observed effect) Mv [5]: 0 | Obs. (observed effect) Sz [6]: 0 | Obs. (observed effect) Lf [7]: 0 | Obs. (observed effect) Ost [8]: 0 | Obs. (observed effect) Eor [9]: 30 | Obs. (observed effect) Cd (Cyperus difformis (Cd)): 35 | Obs. (observed effect) Sm (Scirpus mucronatus (Sm)): 0 | Obs. (observed effect) Ci (Cyperus iria (Ci)): 0 | Obs. (observed effect) Oss [10]: 0
